Data published in ChEMBL document CHEMBL5360635 (J Med Chem, 2023).
Each block holds one compound with its values, some of them ahead of it. Calls of active or inactive are those of the source. The calls are words filed in the database; no cut-off is given here.

Assays:
[1] = biological target: Bifunctional peptidase and arginyl-hydroxylase JMJD5 (Homo sapiens, UniProt Q8N371); assay: Inhibition of N-terminal his6-tagged-thioredoxin-tagged human recombinant JMJD5 expressed in Escherichia coli using RPS6 as substrate by SPE-MS analysis
Bifunctional peptidase and arginyl-hydroxylase JMJD5, sequence (Q8N371 whole entry): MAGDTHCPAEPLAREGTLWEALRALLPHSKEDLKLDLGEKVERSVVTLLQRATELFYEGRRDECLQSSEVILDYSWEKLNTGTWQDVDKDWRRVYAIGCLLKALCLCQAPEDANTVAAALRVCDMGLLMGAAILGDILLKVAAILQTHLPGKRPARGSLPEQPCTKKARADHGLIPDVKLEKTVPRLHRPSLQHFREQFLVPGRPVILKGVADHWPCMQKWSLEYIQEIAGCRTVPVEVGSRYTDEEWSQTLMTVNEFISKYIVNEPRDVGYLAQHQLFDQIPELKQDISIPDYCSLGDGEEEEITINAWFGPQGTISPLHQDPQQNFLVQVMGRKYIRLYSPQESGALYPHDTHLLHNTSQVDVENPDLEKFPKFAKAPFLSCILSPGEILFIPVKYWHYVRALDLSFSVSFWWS

[2] = biological target: T1, Lysine-specific demethylase 4E (Homo sapiens, UniProt B2RXH2); assay: Inhibition of KDM4E (unknown origin) by SPE-MS analysis
T1 sequence (B2RXH2 whole entry): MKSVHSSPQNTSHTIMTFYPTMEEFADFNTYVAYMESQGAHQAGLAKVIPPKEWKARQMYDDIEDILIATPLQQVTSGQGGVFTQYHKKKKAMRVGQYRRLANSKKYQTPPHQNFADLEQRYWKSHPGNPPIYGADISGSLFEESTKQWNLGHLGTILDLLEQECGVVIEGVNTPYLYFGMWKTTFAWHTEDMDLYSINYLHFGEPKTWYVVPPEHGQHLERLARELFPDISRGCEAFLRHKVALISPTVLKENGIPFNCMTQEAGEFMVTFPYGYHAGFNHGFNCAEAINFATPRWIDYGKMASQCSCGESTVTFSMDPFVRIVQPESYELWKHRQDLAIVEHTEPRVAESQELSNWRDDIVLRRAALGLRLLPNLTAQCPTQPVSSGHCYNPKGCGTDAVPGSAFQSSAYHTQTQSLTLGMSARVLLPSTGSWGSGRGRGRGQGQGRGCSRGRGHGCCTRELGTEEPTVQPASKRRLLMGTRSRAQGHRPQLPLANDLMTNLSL

A549 [3] = assay: Induction of replication stress in human A549 cells increase in 53BP1 bodies at 1 uM by DAPI staining based fluorescent microscopic analysis; type: functional, cell-based
A549 [4] = assay: Induction of cell cycle arrest in human A549 cells assessed as accumulation at G1 phase incubated for 24 hrs by PI staining based flow cytometry; type: functional
A549 [5] = assay: Induction of cell cycle arrest in human A549 cells assessed as accumulation at sub G1 phase incubated for 24 hrs by PI staining based flow cytometry; type: functional
A549 [6] = assay: Induction of replication stress in human A549 cells increase in micronuclei at 1 uM by DAPI staining based fluorescent microscopic analysis; type: functional, cell-based
[7] = biological target: T1, Lysine-specific demethylase 4E; assay: Inhibition of KDM4E (unknown origin) by FDH-coupled spectrophotometric turnover assay
[8] = Inhibition of N-terminal his6-tagged FIH (unknown origin) expressed in Escherichia coli using HIF-alpha CAD (788 to 822 residues) expressed in Escherichia coli by SPE-MS analysis; set-up: species or system Homo sapiens

IC50 [1]: 0.7 µM
Structure (SMILES): COc1ccccc1CNc1cnc(C(=O)O)cc1C(=O)O

IC50 [2]: Not Active
Structure (SMILES): O=C(O)c1cc(C(=O)O)c(C(F)(F)F)cn1

IC50 [7]: 56 µM
Structure (SMILES): O=C(O)c1ccnc(C(=O)O)c1Nc1ccccc1[N+](=O)[O-]

IC50 [2]: Not Active
Structure (SMILES): O=C(O)c1ccnc(C(=O)O)c1C(F)(F)F

Further lines, the compound ahead of its results:

Structure (SMILES): COC(=O)c1cc(C(=O)OC)c(NCc2ccccc2OC)cn1
Activity (A549 [3]): Active
Activity (A549 [4]): Active
Activity (A549 [5]): Active
Activity (A549 [6]): Active

Structure (SMILES): COC(=O)c1cc(C(=O)OC)c(NCc2ccccc2C2CC2)cn1
Activity (A549 [3]): Active
Activity (A549 [4]): Active
Activity (A549 [5]): Active
Activity (A549 [6]): Active

Structure (SMILES): O=C(O)c1cc(C(=O)O)c(NCc2ccccc2C2CC2)cn1
IC50 [8]: > 50 µM
